Results as given in patent US20130190487A1, “PROCESS FOR THE PREPARATION OF EZETIMIBE AND DERIVATIVES THEREOF” (KRKA, priority 2007, published 2013).

Assays:
Format in all cases: physicochemical
[1] = Water sorption/desorption on automatic water sorption analyzer DVS-1; conditions: 25° C.
Protocol: Anhydro form of ezetimibe was tested on the automatic water sorption analyzer DVS-1 (Surface Measurement Systems Ltd., London, GB) under the following conditions: • controlled room temperature (25° C.) • nitrogen flow 200 ml/min • two full cycles from 0% RH to 95% RH and back in eleven stages • minimal time per one stage (when dm/dt<0.002%) was 10 min • maximal time per one stage was 360 min.

[2] = Heating in Mettler HR73 Halogen Moisture Analyzer (LOD), then XRPD analysis
From the text: Hydrated form H of ezetimibe (from Example 30) was heated in a Mettler HR73 Halogen Moisture Analyzer. […] In all cases anhydro form of ezetimibe resulted according to XRPD analysis.
Pure S form of ezetimibe (tert.-butanol solvate; from Example 32) was heated in a Mettler HR73 Halogen Moisture Analyzer at different temperatures for the time indicated and analyzed by XRPD.

[3] = Drying in a vacuum dryer, XRPD analysis; conditions: ambient temperature, cca. 100 mbar
Protocol: Hydrated form H of ezetimibe was dried in a vacuum dryer at an ambient temperature and a pressure of cca. 100 mbar. After 1 h anhydrous form already predominated (A>H), after 2 h it became the sole form according to XRPD analysis.

[4] = Drying in an air dryer, XRPD analysis
From the text: Hydrated form H of ezetimibe was dried in an air dryer (RH was 35%) at two different temperatures.

Q: Which “mass in the desorption cycle” value ([1]; at 20% RH) does the source give for O=C1[C@H](CC[C@H](O)c2ccc(F)cc2)[C@@H](c2ccc(O)cc2)N1c1ccc(F)cc1 [Anhydro form of ezetimibe, 1-(4-fluorophenyl)-3(R)-[3-(4-fluorophenyl)-3(S)-hydroxypropyl]-4(S)-(4-hydroxyphenyl)-2-azetidinone] here?
A: dropped sharply

Q: And the “mass in the desorption cycle” value ([1]; down to 30% RH)?
A: not significantly changed

Q: What about the “water sorption, mass change at equilibrium” value ([1]; first cycle, 60% RH) of the same compound?
A: 4.2%

Q: What about the “water sorption, total” value ([1]; first cycle, 95% RH) of the same compound?
A: 4.4%

Q: And the absorption of water ([1]; first cycle, up to 50% RH)?
A: no significant absorption of water

Q: And the water sorption ([1]; second cycle, 50% RH)?
A: increased sharply

Q: Which “time to constant value of LOD” value ([2]; 50° C.) does the source give for O=C1[C@H](CC[C@H](O)c2ccc(F)cc2)[C@@H](c2ccc(O)cc2)N1c1ccc(F)cc1 [Hydrated form H of ezetimibe, 1-(4-fluorophenyl)-3(R)-[3-(4-fluorophenyl)-3(S)-hydroxypropyl]-4(S)-(4-hydroxyphenyl)-2-azetidinone] here?
A: 11.5 min

Q: What about the “time to constant value of LOD” value ([2]; 60° C.) of the same compound?
A: 6.5 min

Q: And the “time to constant value of LOD” value ([2]; 70° C.)?
A: 4.5 min

Q: What about the “resulting form according to XRPD analysis” value ([2]; after heating at 50, 60 or 70° C. to constant LOD) of the same compound?
A: anhydro form

Q: What about the “Constant value of LOD” value ([2]; heated at 50° C., 60° C. or 70° C.) of the same compound?
A: −4.5%

Q: And the “form according to XRPD analysis” value ([3]; after 1 h)?
A: A>H

Q: And the “form according to XRPD analysis” value ([3]; after 2 h)?
A: sole form

Q: What about the “form detected according to XRPD analysis” value ([4]; air dryer, RH 35%, 40° C., after 1 h) of the same compound?
A: only anhydro form

Q: What about the “temperature at which converted to anhydrous form A” value ([4]; upon drying) of the same compound?
A: about 40 °C

Q: With O=C1[C@H](CC[C@H](O)c2ccc(F)cc2)[C@@H](c2ccc(O)cc2)N1c1ccc(F)cc1 [S form of ezetimibe, 1-(4-fluorophenyl)-3(R)-[3-(4-fluorophenyl)-3(S)-hydroxypropyl]-4(S)-(4-hydroxyphenyl)-2-azetidinone] as the compound, how does the stability upon drying [2] read?
A: stable upon drying

Q: And the “LOD (%)” value ([2]; 50 ° C., 14 min)?
A: −0.83%

Q: What about the “LOD (%)” value ([2]; 60 ° C., 10.5 min) of the same compound?
A: −1.10%

Q: What about the “LOD (%)” value ([2]; 70 ° C., 9 min) of the same compound?
A: −2.34%

Q: What about the “LOD (%)” value ([2]; 130 ° C., 4.5 min) of the same compound?
A: −12.0%

Q: And the loss of drying ([2]; temperature of about 70° C.)?
A: only minimal loss of drying
